Here are results for 3 compounds from US20110263649A1, “CRYSTALLINE FORM OF LENALIDOMIDE AND A PROCESS FOR ITS PREPARATION” (GENERICS [UK] LIMITED, priority 2008, published 2011).

Each structure is given as a SMILES string. Where two headings read alike, the source gives them in different places.

The conditions of data set [1]: as indicated in WO 2005/023192; cited from earlier work.
Data set [2] in a line: aqueous solubility of lenalidomide crystalline forms. The note with it: forms prepared and tested by the inventors.
The conditions of data set [3]: as disclosed in WO 2005/023192; cited from earlier work.

With `Nc1cccc2c1CN(C1CCC(=O)NC1=O)C2=O` (stereo not shown) [polymorphic mixture, lenalidomide], the aqueous solubility result was “poorly soluble in water” in data set [1] and “poor aqueous solubility” in data set [2]. With `Nc1cccc2c1CN(C1CCC(=O)NC1=O)C2=O` (stereo not shown) [novel crystalline form, 3-(4-amino-1-oxo-1,3-dihydro-isoindol-2-yl)-piperidine-2,6-dione], in data set [2], the aqueous solubility entry was “High solubility in aqueous medium”. For `Nc1cccc2c1CN(C1CCC(=O)NC1=O)C2=O` (stereo not shown) [form E, lenalidomide], the “weight loss upon storage” value in data set [3] is given as “the greatest weight loss upon storage”.
